Source: patent US9161502B2, “Brassica juncea lines with a canola fatty acid profile” (PIONEER HI BRED INTERNATIONAL INC, priority 2007, dated 2015)

System: B. juncea seed
Experiment: EMS kill curves: germination of B. juncea seed treated with various concentrations of EMS
Assay type: in vivo, Brassica juncea
Conditions: for % germination: seeds soaked 18 hours, germination box 25° C., 7 days
Method: A bulk population (99SJ-1309) was created for this experiment from 8 different low glucosinolate and low erucic acid B. juncea breeding lines. These lines were selected for a range of quality and agronomic traits such as oil content and seed size. 500 seeds of the bulk population were used for each treatment of the following experiment. The seeds were soaked in various concentrations EMS for 18 hours and then washed 3 times. A sub-sample of 100 seeds was placed in a germination box at 25° C. for 7 days. After 7 days, the number of seeds that germinated and produced a healthy radicle was calculated. All seeds that were treated with EMS took at least 2 days longer to germinate than controls.
EMS treatment of seed affected the germination rate (FIG. 1, Table 2 and Table 3). […] This experiment was not replicated. Its purpose was to evaluate the effect of EMS on seed germination rate. The first experiment was designed to test a broad range of EMS application rates and the second experiment was to reduce the range of EMS treatment to develop the desirable mutations (Table 3).

CCOS(C)(=O)=O [EMS, ethyl methane sulfonate]
germination rate versus expectation (0.36% EMS treatment rate): much lower germination rate than expected | germination rate (0.48% EMS, text summary of Experiment 1): approximately 50% | delay of germination versus controls (all seeds treated with EMS): at least 2 days | germination rates (highest concentrations of EMS): less than 50% | % germination (kill curve #1 (Treatment 1), EMS 0.16% w/v): 93% | % germination (kill curve #1 (Treatment 1), EMS 0.33% w/v): 90% | % germination (kill curve #1 (Treatment 1), EMS 0.48% w/v): 61% | % germination (kill curve #1 (Treatment 1), EMS 0.64% w/v): 39% | % germination (kill curve #2 (Treatment 2), EMS 0.36% w/v): 57% | % germination (kill curve #2 (Treatment 2), EMS 0.42% w/v): 68% | % germination (kill curve #2 (Treatment 2), EMS 0.48% w/v): 43% | % germination (kill curve #2 (Treatment 2), EMS 0.56% w/v): 46% | effect on germination rate (lowest concentrations (0.16 and 0.33%)): little effect on germination rate
